Assays:
Assay in all cases: kinase inhibition assay (method cited to earlier paper)
Format in all cases: biochemical
JAK3 = target: T1, JAK3 (Homo sapiens, UniProt P52333)
T1 sequence (P52333 1-1124): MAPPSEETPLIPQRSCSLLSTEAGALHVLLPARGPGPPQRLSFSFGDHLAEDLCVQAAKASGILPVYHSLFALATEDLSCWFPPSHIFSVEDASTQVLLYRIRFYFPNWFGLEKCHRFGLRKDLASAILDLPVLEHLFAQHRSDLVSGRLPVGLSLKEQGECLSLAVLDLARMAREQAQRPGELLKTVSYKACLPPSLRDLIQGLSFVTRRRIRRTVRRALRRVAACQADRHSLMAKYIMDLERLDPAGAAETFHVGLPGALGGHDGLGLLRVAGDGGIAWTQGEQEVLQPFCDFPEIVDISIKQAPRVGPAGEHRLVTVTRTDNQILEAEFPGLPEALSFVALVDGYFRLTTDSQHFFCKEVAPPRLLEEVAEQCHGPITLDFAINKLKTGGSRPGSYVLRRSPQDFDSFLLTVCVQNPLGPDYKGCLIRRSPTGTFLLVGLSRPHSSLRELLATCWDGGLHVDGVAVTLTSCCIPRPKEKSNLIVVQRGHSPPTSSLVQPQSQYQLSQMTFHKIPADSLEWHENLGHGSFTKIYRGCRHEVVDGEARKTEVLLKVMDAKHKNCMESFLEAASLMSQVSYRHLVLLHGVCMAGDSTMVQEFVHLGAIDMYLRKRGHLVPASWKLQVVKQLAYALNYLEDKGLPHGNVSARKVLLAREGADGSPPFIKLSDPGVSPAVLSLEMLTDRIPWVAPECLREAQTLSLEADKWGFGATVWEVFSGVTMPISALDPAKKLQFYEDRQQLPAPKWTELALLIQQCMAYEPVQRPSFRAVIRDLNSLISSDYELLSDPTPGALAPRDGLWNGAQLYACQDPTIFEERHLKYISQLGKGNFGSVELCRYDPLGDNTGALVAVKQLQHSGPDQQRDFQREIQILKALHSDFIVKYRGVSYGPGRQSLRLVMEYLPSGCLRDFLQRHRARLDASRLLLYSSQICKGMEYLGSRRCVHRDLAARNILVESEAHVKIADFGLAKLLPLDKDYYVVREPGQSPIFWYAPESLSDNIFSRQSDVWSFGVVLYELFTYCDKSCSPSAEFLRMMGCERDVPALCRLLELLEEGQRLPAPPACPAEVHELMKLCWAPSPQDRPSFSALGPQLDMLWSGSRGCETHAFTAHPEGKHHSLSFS

ROCK2 = ROCK2 (Homo sapiens, UniProt O75116)
DDR1 = DDR1 (Homo sapiens, UniProt Q08345)
DDR1, sequence (Q08345 19-913): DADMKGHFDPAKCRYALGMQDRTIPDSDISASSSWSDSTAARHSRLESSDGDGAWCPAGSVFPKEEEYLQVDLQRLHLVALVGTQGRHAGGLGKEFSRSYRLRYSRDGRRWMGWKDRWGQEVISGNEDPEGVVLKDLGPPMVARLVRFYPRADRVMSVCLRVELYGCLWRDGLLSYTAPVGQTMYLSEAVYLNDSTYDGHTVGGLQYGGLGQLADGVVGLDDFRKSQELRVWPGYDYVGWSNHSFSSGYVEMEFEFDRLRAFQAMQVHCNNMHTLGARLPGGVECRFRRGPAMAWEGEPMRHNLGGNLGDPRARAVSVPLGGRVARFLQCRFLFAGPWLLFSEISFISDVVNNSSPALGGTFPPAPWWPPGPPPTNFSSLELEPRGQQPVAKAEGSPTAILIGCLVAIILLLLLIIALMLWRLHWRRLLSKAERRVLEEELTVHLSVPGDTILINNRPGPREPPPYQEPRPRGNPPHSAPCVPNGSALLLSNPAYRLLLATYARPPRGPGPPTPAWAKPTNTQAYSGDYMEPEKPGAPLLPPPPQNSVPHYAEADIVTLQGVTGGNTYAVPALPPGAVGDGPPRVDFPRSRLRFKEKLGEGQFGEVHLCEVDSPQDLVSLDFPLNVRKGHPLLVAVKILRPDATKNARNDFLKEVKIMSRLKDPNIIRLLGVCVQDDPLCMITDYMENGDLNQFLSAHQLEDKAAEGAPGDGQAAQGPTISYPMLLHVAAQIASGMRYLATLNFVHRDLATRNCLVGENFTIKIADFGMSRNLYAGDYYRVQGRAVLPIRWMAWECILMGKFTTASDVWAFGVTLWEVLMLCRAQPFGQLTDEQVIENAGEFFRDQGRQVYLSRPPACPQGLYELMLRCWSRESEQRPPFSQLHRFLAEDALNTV

ROCK2, sequence (O75116 whole entry): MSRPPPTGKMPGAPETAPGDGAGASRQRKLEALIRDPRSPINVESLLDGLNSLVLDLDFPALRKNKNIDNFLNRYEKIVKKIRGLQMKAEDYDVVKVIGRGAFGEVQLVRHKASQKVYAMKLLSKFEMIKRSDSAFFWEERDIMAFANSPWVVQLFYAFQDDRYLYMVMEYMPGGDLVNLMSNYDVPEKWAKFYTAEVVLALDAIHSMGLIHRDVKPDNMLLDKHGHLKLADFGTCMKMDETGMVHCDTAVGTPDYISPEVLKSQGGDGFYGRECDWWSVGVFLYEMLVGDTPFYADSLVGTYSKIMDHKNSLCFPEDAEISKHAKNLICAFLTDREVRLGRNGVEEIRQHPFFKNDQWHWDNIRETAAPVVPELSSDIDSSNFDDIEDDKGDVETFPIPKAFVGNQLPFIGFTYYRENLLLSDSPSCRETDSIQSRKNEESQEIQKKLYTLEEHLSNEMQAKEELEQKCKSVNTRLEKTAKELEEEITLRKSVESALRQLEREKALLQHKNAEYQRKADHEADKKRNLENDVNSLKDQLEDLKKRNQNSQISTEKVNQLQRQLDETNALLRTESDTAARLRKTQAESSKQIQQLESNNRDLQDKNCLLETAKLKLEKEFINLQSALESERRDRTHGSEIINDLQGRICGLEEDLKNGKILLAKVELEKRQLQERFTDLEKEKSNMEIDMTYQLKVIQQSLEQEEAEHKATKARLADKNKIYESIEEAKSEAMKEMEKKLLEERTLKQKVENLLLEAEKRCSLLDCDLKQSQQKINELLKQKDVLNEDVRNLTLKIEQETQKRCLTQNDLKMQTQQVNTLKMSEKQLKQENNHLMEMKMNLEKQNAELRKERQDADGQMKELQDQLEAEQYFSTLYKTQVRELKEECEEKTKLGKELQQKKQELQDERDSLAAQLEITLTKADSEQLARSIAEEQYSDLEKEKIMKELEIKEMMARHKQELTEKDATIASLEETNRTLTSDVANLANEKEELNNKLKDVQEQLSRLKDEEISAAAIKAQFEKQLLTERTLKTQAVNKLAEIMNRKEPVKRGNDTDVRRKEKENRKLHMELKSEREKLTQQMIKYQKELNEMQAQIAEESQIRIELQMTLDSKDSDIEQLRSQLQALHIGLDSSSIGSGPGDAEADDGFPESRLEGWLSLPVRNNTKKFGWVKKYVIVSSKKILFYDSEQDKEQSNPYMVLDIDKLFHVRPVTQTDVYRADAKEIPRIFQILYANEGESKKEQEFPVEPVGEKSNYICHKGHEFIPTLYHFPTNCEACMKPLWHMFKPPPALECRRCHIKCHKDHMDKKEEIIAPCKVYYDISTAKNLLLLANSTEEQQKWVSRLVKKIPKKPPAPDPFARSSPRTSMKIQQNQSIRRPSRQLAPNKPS

IC50 (JAK3) [µM]	IC50 (ROCK2) [µM]	IC50 (DDR1) [µM]	Structure (SMILES)
9.17	27.1		Cc1ccc(O)c(-c2cc(CC(=O)O)ccc2O)c1 [compound 6, Plancyin F]
4.59		22.9	OC[C@@H]1OC[C@@H](c2ccc(O)c(O)c2)c2cc(O)c(O)cc21 (stereo in doubt) [(−)-9, (−)-Periplanol A]
9.35		23.9	OC[C@H]1OC[C@H](c2ccc(O)c(O)c2)c2cc(O)c(O)cc21 (stereo in doubt) [(+)-9, (+)-Periplanol A]

Reference: article PMC7933325, “Neolignans and Norlignans from Insect Medicine Polyphaga plancyi and Their Biological Activities” (Natural Products and Bioprospecting, 2020)
